# Results from BindingDB's records for doi:10.1016/j.bmcl.2009.11.061 (Glaxosmithkline, 2010).
# Assay: Inhibition of GSK3beta phosphorylation in human BT474 cells
row,SMILES,IC50 [nM]
1,"Cc1nc(-c2ccoc2)c(-c2cnc3[nH]nc(C)c3n2)cc1OC[C@@H](N)Cc1c[nH]c2ccccc12 [(S)-1-(6-(furan-3-yl)-2-methyl-5-(3-methyl-1H-pyrazolo[4,3-b]pyrazin-5-yl)pyridin-3-yloxy)-3-(1H-indol-3-yl)propan-2-amine]",280
2,"Cc1occc1-c1nc(N)c(OC[C@@H](N)Cc2c[nH]c3ccccc23)cc1-c1cc2c(C)n[nH]c2cn1 [3-((S)-2-amino-3-(1H-indol-3-yl)propoxy)-5-(3-methyl-1H-pyrazolo[3,4-c]pyridin-5-yl)-6-(2-methylfuran-3-yl)pyridin-2-amine]",680
3,"Cc1occc1-c1nc(N)c(OC[C@@H](N)Cc2c[nH]c3ccccc23)cc1-c1cnc2[nH]nc(C)c2n1 [3-((S)-2-amino-3-(1H-indol-3-yl)propoxy)-5-(3-methyl-1H-pyrazolo[4,3-b]pyrazin-5-yl)-6-(2-methylfuran-3-yl)pyridin-2-amine]",560
4,"Cc1occc1-c1nc(N)c(OC[C@@H](N)Cc2c(C#N)[nH]c3ccccc23)cc1-c1cnc2[nH]nc(C)c2n1 [3-((2S)-2-amino-3-(2-amino-5-(3-methyl-1H-pyrazolo[4,3-b]pyrazin-5-yl)-6-(2-methylfuran-3-yl)pyridin-3-yloxy)propyl)-1H-indole-2-carbonitrile]",> 30000
5,"Cc1occc1-c1nc(N)c(OC[C@@H](N)Cc2ccccc2)cc1-c1cnc2[nH]nc(C)c2n1 [3-((S)-2-amino-3-phenylpropoxy)-5-(3-methyl-1H-pyrazolo[4,3-b]pyrazin-5-yl)-6-(2-methylfuran-3-yl)pyridin-2-amine]",280
6,"Cc1occc1-c1ncc(OC[C@@H](N)Cc2c[nH]c3ccccc23)cc1-c1cnc2[nH]nc(C)c2n1 [(2S)-1-(1H-indol-3-yl)-3-(5-(3-methyl-1H-pyrazolo[4,3-b]pyrazin-5-yl)-6-(2-methylfuran-3-yl)pyridin-3-yloxy)propan-2-amine]",210
7,Cc1occc1-c1nc(N)c(OC[C@@H](N)Cc2c[nH]c3ccccc23)cc1-c1ccc2[nH]nc(C)c2c1 [3-((S)-2-amino-3-(1H-indol-3-yl)propoxy)-5-(3-methyl-1H-indazol-5-yl)-6-(2-methylfuran-3-yl)pyridin-2-amine],220
8,"CCNc1nc(-c2ccoc2)c(-c2cnc3[nH]nc(C)c3n2)cc1OC[C@@H](N)Cc1ccccc1 [(S)-3-(2-amino-3-phenylpropoxy)-N-ethyl-6-(furan-3-yl)-5-(3-methyl-1H-pyrazolo[4,3-b]pyrazin-5-yl)pyridin-2-amine]",> 10000
9,"Cc1n[nH]c2ncc(-c3cc(OC[C@@H](N)Cc4c[nH]c5ccccc45)c(C#N)nc3-c3ccoc3)nc12 [(S)-3-(2-amino-3-(1H-indol-3-yl)propoxy)-6-(furan-3-yl)-5-(3-methyl-1H-pyrazolo[4,3-b]pyrazin-5-yl)picolinonitrile]",> 10000
10,"Cc1occc1-c1nc(N)c(OC[C@@H](N)Cc2c(C(N)=O)[nH]c3ccccc23)cc1-c1cnc2[nH]nc(C)c2n1 [3-((2S)-2-amino-3-(2-amino-5-(3-methyl-1H-pyrazolo[4,3-b]pyrazin-5-yl)-6-(2-methylfuran-3-yl)pyridin-3-yloxy)propyl)-1H-indole-2-carboxamide]",> 30000
11,"Cc1occc1-c1nc(N)c(OC[C@@H](N)Cc2c(Cl)[nH]c3ccccc23)cc1-c1cnc2[nH]nc(C)c2n1 [3-((S)-2-amino-3-(2-chloro-1H-indol-3-yl)propoxy)-5-(3-methyl-1H-pyrazolo[4,3-b]pyrazin-5-yl)-6-(2-methylfuran-3-yl)pyridin-2-amine]",300
